The first data set relates to Monoclonal mouse 5α-PtG antibody. Kind of data set: Cross-reactivity of monoclonal 5α-PtG antibody (enzyme immunoassay). It is filed as binding. The note with it: monoclonal mouse 5α-PtG antibody raised against 5α-PtG-KLH. As to the method: Monoclonal mouse 5α-PtG antibody was raised against the 5α-PtG-KLH by Thermo Fisher Scientific (Rockford, TL, USA). The antibodies were screened against the 5α-PtG-BSA. Cross-reactivities for the antibody were: 100% 5α-pregnane-3β,6α,20β-triol glucuronide, 25.4% 5α-pregnane-3β,6α,20β-triol, 0.5% 5β-pregnane-3α,20β-diol and 0.5% 5α-pregnane-3β,6α-diol-20-one.
The 96 well polystyrene, certified MaxiSorp® plates were coated with antigen (5α-PtG-cBSA) by adding 100 μl of 0.25 μg/ml antigen in coating buffer (0.01 M sodium bicarbonate, pH 9.5) in each well. The plates were covered with plastic sticker to prevent evaporation, protected from light and incubated at room temperature over night or several nights at +4° C. The wells were emptied and washed once with 250 μl general washing buffer (e.g. PBS with 0.05% Tween 20 (PBST)), filled with 200 μl blocking buffer (5% sucrose and 0.5% BSA in PBST (w/V)), covered and incubated at +37° C. for a half an hour. The plates were poured empty and dried for three hours at +37° C. Dried plates were covered with plastic sticker, packed in re-sealable plastic bags with silica beads and stored at +4° C. until use.
The hormone assays were performed from the individual samples collected in different oestrus cycle phases and from the urine sample series from 60 bitches. The 5α-PtG-cBSA coated plates were washed once with 250 μl of PBST. The urine samples were diluted 1:20 in assay buffer (0.2% BSA (w/V) in PBS with 0.01% Triton-X) and added in sample wells (50 μl). A dilution series of standard was prepared by diluting the 5α-PtG in assay buffer and added to standard wells (50 μl; 1200-1.6 nM). Assay buffer without additives was added to two wells to determine the maximum binding capacity (B0) and 1900 nM 5α-PtG control was diluted 1:20 in assay buffer and used as a recovery control in all assays. All samples and standards were measured as two replicates. The stock dilution of monoclonal mouse 5α-PtG antibody (1:100) was further diluted 1:100 in assay buffer and added 50 μl in each well. The plate was covered and incubated at +37° C. for half an hour, followed by washing the plate three times. Horseradish peroxidase labeled secondary antibody (goat anti-mouse IgG HRP) was diluted in 1:20 000 in 0.5% BSA (w/V) in PBST, added 100 μl per well and incubated half an hour at +37° C. After washing the plate three times with PBST, TMB in DMSO solution (0.5% 3,3′,5,5′-tetramethylbenzidine in dimethylsulfoxide (w/V; TCIAT1023 Tokyo Chemical Industry)) was diluted 1:50 in substrate buffer (0.1 M sodium acetate trihydrate, 1.5 mM citric acid monohydrate, 0.005% hydrogen peroxide (30%)), added in each well (100 μl) and incubated at room temperature 30 minutes. The reaction was stopped by adding 50 μl 1 M sulfuric acid to each well. The absorbance was measured at 450 nm by microplate reader (Hidex Sense).
Turning to `C[C@H](O)[C@H]1CC[C@H]2[C@@H]3CC[C@@H]4C[C@H](O[C@@H]5O[C@H](C(=O)O)[C@@H](O)[C@H](O)[C@H]5O)CC[C@]4(C)[C@H]3CC[C@]12C` [PdG, 5β-pregnane-3α,20α-diol-3-glucuronide], the “Cross-reactivities for the antibody” value is reported as “No cross-reactivities”.

`C[C@@H](O)[C@H]1CC[C@H]2[C@@H]3CC[C@@H]4C[C@H](O)CC[C@]4(C)[C@H]3CC[C@]12C` [5β-pregnane-3α,20β-diol]: the “Cross-reactivities for the antibody” value stood at 0.5%.

Take `CC(O)C1(O)CCC2C3CCC4CC(O)CCC4(C)C3CCC21C` (stereo not drawn) [5β-pregnane-3α,17α,20β-triol]: the “Cross-reactivities for the antibody” value is on record as “No cross-reactivities”.

Consider `C[C@@H](O)[C@H]1CC[C@H]2[C@@H]3C[C@H](O)[C@H]4C[C@@H](O)CC[C@]4(C)[C@H]3CC[C@]12C` [5α-pregnane-3β,6α,20β-triol], for which the “Cross-reactivities for the antibody” value is 25.4%.

Turning to `CC(=O)[C@H]1CC[C@H]2[C@@H]3CCC4=CC(=O)CC[C@]4(C)[C@H]3CC[C@]12C` [progesterone, pregn-4-ene-3,20-dione], the “Cross-reactivities for the antibody” value is recorded as “No cross-reactivities”.

`C[C@@H](O)[C@@]1(O)CCC2C3CC[C@H]4C[C@@H](O)CC[C@]4(C)C3CC[C@@]21C` (stereo partly drawn) [5α-pregnane-3β,17α,20β-triol]: the “Cross-reactivities for the antibody” value is given as “No cross-reactivities”.

As for `C[C@H](O)[C@@]1(O)CC[C@H]2[C@@H]3CC[C@@H]4C[C@H](O)CC[C@]4(C)[C@H]3CC[C@@]21C` [5β-pregnane-3α,17α,20α-triol], the “Cross-reactivities for the antibody” value is “No cross-reactivities”.

For `C[C@@H](O)[C@H]1CC[C@H]2[C@@H]3C[C@H](O[C@@H]4O[C@H](C(=O)O)[C@@H](O)[C@H](O)[C@H]4O)[C@H]4C[C@@H](O)CC[C@]4(C)[C@H]3CC[C@]12C` [5α-PtG, 5α-pregnane-3β,6α,20β-triol-6-O-β-D-glucuronide], the “Cross-reactivities for the antibody” value was 100%.

`C[C@H](O)[C@H]1CC[C@H]2[C@@H]3C[C@H](O)[C@H]4C[C@@H](O)CC[C@]4(C)[C@H]3CC[C@]12C` [5α-pregnane-3β,6α,20α-triol]: the “Cross-reactivities for the antibody” value is “No cross-reactivities”.

Turning to `C[C@H](O)[C@H]1CC[C@H]2[C@@H]3CC[C@@H]4C[C@H](O)CC[C@]4(C)[C@H]3CC[C@]12C` [5β-pregnane-3α,20α-diol], the “Cross-reactivities for the antibody” value is recorded as “No cross-reactivities”.

Regarding `CC(=O)[C@H]1CC[C@H]2[C@@H]3C[C@H](O)[C@H]4C[C@@H](O)CC[C@]4(C)[C@H]3CC[C@]12C` [5α-pregnane-3β,6α-diol-20-one], the “Cross-reactivities for the antibody” value is listed as 0.5%.

Another data set concerns hepatic S9 enzymes. Kind of data set: In vitro metabolism of progesterone by hepatic S9. It is filed as in vitro ADME, dog. As to conditions: after one hour with ovarian S9, hepatic S9 added.
As to `CC(=O)[C@@]1(O)CC[C@H]2[C@@H]3CCC4=CC(=O)CC[C@]4(C)[C@H]3CC[C@@]21C` [17α-OHP, 17α-hydroxyprogesterone], the “change of 17α-OHP when hepatic S9 were added” value is “decreased significantly”.

The data set is the same for the next values; noted with them: dog, 50 µg/mL.
For `CC(=O)[C@H]1CC[C@H]2[C@@H]3CCC4=CC(=O)CC[C@]4(C)[C@H]3CC[C@]12C` [progesterone, pregn-4-ene-3,20-dione], the “hydroxyprogesterones produced from progesterone” value is “higher amounts of 6α-, 6β- and 16α-hydroxyprogesterones were detected”.

Values taken from US20260276660A1, “DETERMINATION OF PROGESTOGENS NON-INVASIVELY IN ANIMALS” (Vetcare Oy, priority 2023, published 2026).
